Assay results published in patent US10183030B2, “17α,21-diesters of cortexolone for use in the treatment of tumors” (COSMO TECHNOLOGIES LTD., priority 2014, dated 2019).
Like-named read-outs stand apart in the source and are kept apart here.

What was measured:
[1] = test system: MiaPaca2 (AR low) pancreatic cancer cells; assay: ATP-dependent proliferation/viability assay, MiaPaca2; format: cell-based; settings: Homo sapiens
Method: (§1) The experimental method consisted of: • 1. […] After 24 hours, 10 nM DHT (dihydrotestosterone) with or without anti-androgen compounds, or DMSO vehicle (negative control) was added to the cultures. • 3.
(§2) Each compounds was titrated from 3 uM to 200 uM.

[2] = test system: Panc1 (AR+) pancreatic cancer cells; assay: ATP-dependent proliferation/viability assay, Panc1; format: cell-based; settings: Homo sapiens
Method: as §1, §2

[3] = test system: stimulated PBMC (actively dividing cells); assay: IC50 on stimulated PBMC (intrinsic toxicity); format: cell-based; settings: Homo sapiens
Method: (§4) The IC50 in PBMC were tested in 2 different activation status: • stimulated—actively dividing cells • resting—quiescent, non-dividing cells
(§5) IC50 of the compounds was determined on fresh cells isolated from human blood (PBMC).

MCF7 breast cancer cells = assay: In vitro proliferation / cytotoxic assay, MCF7; format: cell-based; settings: Homo sapiens
Method: After 72 hours incubation cell were harvested, lysed and viability determined using the cell titer glow assay for viability.

HT29 colon cancer cells = assay: In vitro proliferation, HT29 (cancer cell panel); format: cell-based; settings: Homo sapiens, HT-29, HT29
Method: as §2

[4] = test system: resting PBMC (quiescent, non-dividing cells); assay: IC50 on resting PBMC (intrinsic toxicity); format: cell-based; settings: Homo sapiens
Method: as §4, §5

[5] = test system: LNCaP (AR+) prostate cancer cells; assay: ATP-dependent proliferation/viability assay, LNCaP; format: cell-based; settings: Homo sapiens
Method: (§3) The experiment was performed to test and to define the antitumor activity in vitro of cortexolone 17α-benzoate on LNCaP (AR^+) and PC3 (AR^−), representative of Prostatic cancer cell lines with Androgen Receptor (AR) positive or negative expression, respectively. The experimental method consisted of: • 1. […] After 24 hours, 10 nM DHT (dihydrotestosterone) with or without anti-androgen compounds, or DMSO vehicle (negative control) was added to the cultures. • 3.
as §3, with “define” for “define the”, “17α-valerate-21-propionate (CB-03-10)” for “17α-benzoate”, “AR” for “Androgen Receptor (AR)”
as §2

[6] = test system: Caspase 8, 9 and 3/7 in MiaPaca2 cells; assay: Caspase activity in MiaPaca2 cells; format: cell-based, human; settings: 8, 24, 48 hours
Method: From previous studies was determined that CB-03-10 induces apoptosis using Annexin V staining in MiaPaca2 cells. To better analyze the phenomenon the enzymatic activity of Caspase 8 (initiator caspase for Extrinsic Pathway) and Caspase 9 (initiator caspase for Intrinsic Pathway) and of Caspases 3 and 7 (effector caspases) were measured.
After 24 hours test compounds were added to cells, Gemcitabine (a known pancreatic cancer chemotherapeutic agent) and DMSO were used as positive and negative control, respectively. After 8, 24, & 48 hours incubation with test compounds, cells were lysed in buffer containing the caspase 3/7 or 8 or 9 substrate and a stable luciferase in proprietary buffers. The lysates were transferred to white opaque plates before measuring luminescence in a Tecan Safire instrument. Parallel plates treated identically, were used to determine viable cells. All caspase activities were corrected for the number of viable cells.

[7] = test system: PC3 (AR−) prostate cancer cells; assay: ATP-dependent proliferation/viability assay, PC3; format: cell-based; settings: Homo sapiens, 72 h, 3 days
Method: as §3
as §3, with “define” for “define the”, “17α-valerate-21-propionate (CB-03-10)” for “17α-benzoate”, “AR” for “Androgen Receptor (AR)”
as §2

[8] = test system: PC3 (AR−) prostate cancer cells; assay: ATP-dependent proliferation/viability assay, PC3; format: cell-based; settings: Homo sapiens
[9] = In vivo pharmacokinetics in mouse plasma; settings: mouse, in vivo, 40 mg/kg
Method: The pharmacokinetic of CB-03-10 was evaluated in plasma of mice after intravenous (IV), subcutaneous (SC) and oral administration (PO).
Mice (3 per group) were administered with the following doses, blood was collected at the indicated times. Plasma samples were analyzed by HPLC-MS/MS.

[10] = test system: MiaPaca-2 xenograft tumor; assay: MiaPaca2 human pancreatic tumor xenograft in nude mice, subcutaneous treatment; format: in vivo, mouse
Method: The test was carried out comparing the anti-tumor activity of cortexolone 17α-benzoate at two different dosages (8.0 mg/kg, corresponding approximately at 230 μM, and 40 mg/kg, corresponding approximately at 1150 μM), versus the vehicle (i.e. 0.4% (v/v) tween 80 and 0.5% (w/v) carboxymethylcellulose in normal saline) and versus the comparator Cyproterone Acetate at two different dosages (7.4 mg/kg and 37 mg/kg).
1×10^6 MiaPaca-2 cells suspended in matrigel were subcutaneously injected into 6 week old athymic nude mice.
The treatment with the tested compounds, with the vehicle and with the comparative compound, was initiated after the tumor volume has reached 50 mm^3 after transplantation. All compounds were injected 100 μL/mouse subcutaneously of low dose solution (approximately 230 μM) or 100 μL/mouse of high dose solution (approximately 1150 μM) of cortexolone 17α-benzoate, vehicle and cyproterone acetate, respectively. Compounds and controls were administered subcutaneously daily for 28 days.
Tumors were measured every 4 days with a digital caliper.
The results are plotted in FIG. 1 as average change in tumor volume relative to the start of treatment. Tumor volume was calculated according to the formula 0.5236(r1)^2(r2) where r1<r2.
The test was carried out comparing the anti-tumor activity of cortexolone 17α-valerate-21-propionate (CB-03-10) at two different dosages (approximately 8.6 mg/kg and 43 mg/kg) versus the vehicle (i.e. 0.4% (v/v) tween 80 and 0.5% (w/v) carboxymethylcellulose in normal saline) and versus the comparator Cyproterone Acetate at two different dosages (7.4 mg/kg and 37 mg/kg).
The treatment with the tested compound, with the vehicle and with the comparative compound was initiated after the tumor has reached a volume of 50 mm^3 after implantation, injecting subcutaneously 100 μL/mouse of low dose solution (approximately 230 μM) or 100 μL/mouse of high dose solution (approximately 1150 μM) of cortexolone 17α-valerate-21-propionate (CB-03-10), vehicle and cyproterone acetate, respectively. Compounds and controls were administered subcutaneously daily for 28 days.
The results are plotted in FIG. 2 as average change in tumor volume relative to the start of treatment. Tumor volume was calculated according to the formula 0.5236(r1)^2(r2) where r1<r2.
CPA a well-known anti-androgen was used as control. Briefly 1×10^6 MiaPaca2 cells suspended in matrigel were subcutaneously (SC) injected into 6 week old male athymic nude mice. Tumors were measured every 4 days with a digital caliper. Tumor volume was calculated according to the formula: 0.5236(r1) 2(r2) where r1<r2. Treatment with CB-03-10 and controls compounds was initiated after the tumor had reached 50 mm^3. Compounds diluted in DMSO/2-hydroxypropyl b-cyclodextrin (vehicle) were injected subcutaneously (SC) daily (100 μL/mouse) at the concentration of 40 mg/Kg daily for 28 consecutive days.

[11] = MIA PaCa-2, 72 h, MiaPaca2, Tables I and II, unit inferred, titrated from 3 uM to 200 uM, 3 days, read-out: IC50
[12] = MIA PaCa-2, MiaPaca2, Table IV, read-out: In vitro proliferation IC50 (micro Molar)
[13] = PANC-1, 72 h, Panc1, Tables I and II, unit inferred, titrated from 3 uM to 200 uM, 3 days, read-out: IC50
[14] = PANC-1, Panc1, Table IV, read-out: In vitro proliferation IC50 (micro Molar)
[15] = PBMC STIMULATED, Table IV, read-out: In vitro proliferation IC50 (micro Molar)
[16] = MCF7, Table IV, read-out: In vitro proliferation IC50 (micro Molar)
[17] = Table IV, read-out: In vitro proliferation IC50 (micro Molar)
[18] = 72 h, Tables I and II, unit inferred, compounds titrated from 3 uM to 200 uM, 3 days, read-out: IC50
[19] = Table III, read-out: in vitro proliferation IC50 (μ/M)
[20] = Tables I and II, unit inferred, titrated from 3 uM to 200 uM

| SMILES | IC50 [1, 11] | IC50 [1, 12] | IC50 [2, 13] | IC50 [2, 14] | IC50 [3, 15] | IC50 (MCF7 breast cancer cells; [16]) | IC50 (HT29 colon cancer cells; [17]) | IC50 [5, 18] | IC50 [5, 17] | Caspase 3/7 induction [6] | IC50 [7, 20] | IC50 [8, 17] | further results |
| --- | --- | --- | --- | --- | --- | --- | --- | --- | --- | --- | --- | --- | --- |
| CCCC(=O)OC1(C(=O)CO)CCC2C3CCC4=CC(=O)CC[C@]4(C)C3=CC[C@@]21C (single isomer, unassigned) [CB-03-04] | 160 µM | 160 µM | 340 µM | 340 µM | 360 µM | 88 µM | 51 µM |  |  |  |  |  |  |
| CCCCC(=O)O[C@]1(C(=O)CO)CC[C@H]2[C@@H]3CCC4=CC(=O)CC[C@]4(C)[C@H]3CC[C@@]21C [CB-03-05, cortexolone 17α-valerate] | 59 µM | 59 µM | 74 µM | 74 µM | 130 µM | 50 µM | 30 µM | 32 µM | 32 µM | does not show a good profile for caspase activation | 170 µM | 170 µM | IC50 ([1]; MIA PaCa-2, MiaPaca2, Table III, read-out: in vitro proliferation IC50 (μ/M)): 59 µM; IC50 ([4]; PBMC RESTING, Table III, read-out: in vitro proliferation IC50 (μ/M)): 120 µM; IC50 ([2]; PANC-1, Panc1, Table III, read-out: in vitro proliferation IC50 (μ/M)): 74 µM; IC50 [5, 19]: 32 µM; IC50 ([5]; general conclusion text, read-out: IC50 in LNCaP prostate cancer cells): 32 µM; IC50 ([3]; PBMC STIMULATED, Table III, read-out: in vitro proliferation IC50 (μ/M)): 130 µM; IC50 [8, 19]: 170 µM; IC50 (MCF7 breast cancer cells; MCF7 (ER+PR+GR+/−), 72 hours, Table VI, unit inferred, read-out: IC50 on breast cancer cells): 50 µM; IC50 (MCF7 breast cancer cells; MCF7, Table III, read-out: in vitro proliferation IC50 (μ/M)): 50 µM; body exposure (metabolite after CB-03-10 dosing) ([9]; po): 47 h/ng/mL; body exposure (metabolite after CB-03-10 dosing) ([9]; sc): 189 h/ng/mL; IC50 (HT29 colon cancer cells; Table III, read-out: in vitro proliferation IC50 (μ/M) (converted)): 30 µM |
| C[C@]12CCC(=O)C=C1CC[C@@H]1[C@@H]2CC[C@@]2(C)[C@H]1CC[C@]2(OC(=O)c1ccccc1)C(=O)CO [CB-03-06, cortexolone 17α-benzoate] |  |  |  |  |  |  |  |  |  |  |  |  | pancreatic tumor size increase relative to the start of treatment ([10]; Examples 5 and 6, SC daily for 28 days, test compounds at high dose (approximately 1150 μM, 100 μL/mouse), Cyproterone Acetate treatment groups 7.4 and 37 mg/kg): less than 5 fold |
| CCC(=O)O[C@]1(C(=O)CO)CC[C@H]2[C@@H]3CCC4=CC(=O)CC[C@]4(C)[C@H]3CC[C@@]21C [CB-03-01] | 110 µM | 110 µM | 490 µM | 490 µM | 0.1 µM | 121 µM |  | 33 µM | 33 µM |  | 190 µM | 190 µM |  |
| CC(=O)O[C@]1(C(C)=O)CC[C@H]2[C@@H]3C=C(Cl)C4=CC(=O)[C@@H]5C[C@@H]5[C@]4(C)[C@H]3CC[C@@]21C [Cyproterone Acetate, Cyproterone acetate, reference compound] | 39 µM | 39 µM | 46 µM | 46 µM | 62 µM | 64 µM |  | 22 µM | 22 µM |  | 90 µM | 90 µM | IC50 ([1]; MIA PaCa-2, 72 h, MiaPaca2, 10 nM DHT, 3 days, Examples 3-4, Experiment 1, sigmoidal dose-response curve fit, read-out: IC50): 46 µM; IC50 ([1]; MIA PaCa-2, 72 h, MiaPaca2, 10 nM DHT, 3 days, Examples 3-4, Experiment 2, pooled experiments, least-squares fit, read-out: IC50): 39 µM; IC50 ([1]; MIA PaCa-2, MiaPaca2, Example 7, Experiment 1, read-out: IC50): 39 µM; IC50 ([1]; MIA PaCa-2, MiaPaca2, Example 7, Experiment 2, read-out: IC50): 39 µM; IC50 ([4]; resting PBMC, Example 7, Experiment 1, read-out: IC50 (microM) on Resting PBMC): 18 µM; IC50 ([4]; resting PBMC, Example 7, Experiment 2, read-out: IC50 (microM) on Resting PBMC): 84 µM; IC50 ([2]; PANC-1, 72 h, Panc1, 10 nM DHT, 3 days, Examples 3-4, Experiment 1, sigmoidal dose-response curve fit, read-out: IC50): 54 µM; IC50 ([2]; PANC-1, 72 h, Panc1, 10 nM DHT, 3 days, Examples 3-4, Experiment 2, pooled experiments, least-squares fit, read-out: IC50): 46 µM; IC50 ([2]; PANC-1, Panc1, Example 7, Experiment 1, read-out: IC50): 52 µM; IC50 ([2]; PANC-1, Panc1, Example 7, Experiment 2, read-out: IC50): 46 µM; pancreatic tumor size increase relative to the initial size, during the treatment period ([10]; Example 22, 40 mg/Kg SC daily for 28 consecutive days): 12 fold; IC50 ([5]; 72 h, 10 nM DHT, 3 days, Examples 1-2, Experiment 1 (sigmoidal dose response fit), read-out: IC50): 29 µM; IC50 ([5]; 72 h, 10 nM DHT, 3 days, Examples 1-2, Experiment 2 (nonlinear regression least squares fit), read-out: IC50): 22 µM; IC50 ([3]; stimulated PBMC, Example 7, Experiment 1, read-out: IC50 (microM) on Stimulated PBMC): 63 µM; IC50 ([3]; stimulated PBMC, Example 7, Experiment 2, read-out: IC50 (microM) on Stimulated PBMC): 62 µM; IC50 ([7]; 10 nM DHT, Examples 1-2, Experiment 1): 98 µM; IC50 ([7]; 10 nM DHT, Examples 1-2, Experiment 2): 90 µM |
| Nc1ccn([C@@H]2O[C@H](CO)[C@@H](O)C2(F)F)c(=O)n1 [Gemcitabine, reference compound] |  |  |  |  |  |  |  |  |  | not seen until the 48 hours mark |  |  |  |
